pEC50, pIC50: −log10 of the molar value. Like-named read-outs stand apart in the source and are kept apart here.
What was measured:
whole blood (pERK) = test: pERK Whole Blood; type: cell-based
human DGKα [1] = target: T1, human DGKα (Homo sapiens (Human), UniProt P23743); test: DGKα ADPGLO assay (detergent/lipid micelle substrate); type: biochemical; details: ADPGLO assay; read-out: DGK alpha ADPGLO IC50
Description: DGK Alpha ADPGLO (Truncated) IC50 (uM)
The detergent/lipid micelle was prepared by combining 15 g phosphatidylserine (Avanti 840035P) and 1 g diacylglycerol (8008110) and dissolving into 150 mL chloroform in a 2 L round bottom flask. Chloroform was removed under high vacuum by rotary evaporation. […] The lipid/detergent solution was split into 5 mL aliquots and stored at −80° C.

human DGKζ = human DGKζ (Homo sapiens (Human), UniProt Q13574); test: DGKζ LIPGLO assay (extruded liposome substrate, ADP-Glo luminescence); type: biochemical; details: liposome (LIPGLO) assay; read-out: DGK zeta (liposome assay) IC50
[2] = tested on: human venous whole blood (IFN-γ); test: Human whole blood IFN-γ assay; type: cell-based; details: human whole blood, anti-CD3 plus anti-CD28 stimulation, 24 hours, read-out: IFN-γ Whole Blood EC50
Description: Human venous whole blood (22.5 μL per well), obtained from healthy donors, was pre-treated with compounds for one hour at 37° C. in a humidified 95% air/5% CO2 incubator. The blood was stimulated with 2.5 μL anti-human CD3 and anti-CD28 mAb at a final concentration of 1 μg/mL each for 24 hours at 37° C. IFN-γ in the supernatants was measured using AlphLISA kit (Cat #AL217).

human DGKα [3] = target: T1, human DGKα; test: DGKα LIPGLO assay (extruded liposome substrate, ADP-Glo luminescence); type: biochemical; details: liposome (LIPGLO) assay; read-out: DGK alpha (liposome assay) IC50

Sequence of human DGKζ (Q13574 other isoform, or with tags, fused parts or gaps): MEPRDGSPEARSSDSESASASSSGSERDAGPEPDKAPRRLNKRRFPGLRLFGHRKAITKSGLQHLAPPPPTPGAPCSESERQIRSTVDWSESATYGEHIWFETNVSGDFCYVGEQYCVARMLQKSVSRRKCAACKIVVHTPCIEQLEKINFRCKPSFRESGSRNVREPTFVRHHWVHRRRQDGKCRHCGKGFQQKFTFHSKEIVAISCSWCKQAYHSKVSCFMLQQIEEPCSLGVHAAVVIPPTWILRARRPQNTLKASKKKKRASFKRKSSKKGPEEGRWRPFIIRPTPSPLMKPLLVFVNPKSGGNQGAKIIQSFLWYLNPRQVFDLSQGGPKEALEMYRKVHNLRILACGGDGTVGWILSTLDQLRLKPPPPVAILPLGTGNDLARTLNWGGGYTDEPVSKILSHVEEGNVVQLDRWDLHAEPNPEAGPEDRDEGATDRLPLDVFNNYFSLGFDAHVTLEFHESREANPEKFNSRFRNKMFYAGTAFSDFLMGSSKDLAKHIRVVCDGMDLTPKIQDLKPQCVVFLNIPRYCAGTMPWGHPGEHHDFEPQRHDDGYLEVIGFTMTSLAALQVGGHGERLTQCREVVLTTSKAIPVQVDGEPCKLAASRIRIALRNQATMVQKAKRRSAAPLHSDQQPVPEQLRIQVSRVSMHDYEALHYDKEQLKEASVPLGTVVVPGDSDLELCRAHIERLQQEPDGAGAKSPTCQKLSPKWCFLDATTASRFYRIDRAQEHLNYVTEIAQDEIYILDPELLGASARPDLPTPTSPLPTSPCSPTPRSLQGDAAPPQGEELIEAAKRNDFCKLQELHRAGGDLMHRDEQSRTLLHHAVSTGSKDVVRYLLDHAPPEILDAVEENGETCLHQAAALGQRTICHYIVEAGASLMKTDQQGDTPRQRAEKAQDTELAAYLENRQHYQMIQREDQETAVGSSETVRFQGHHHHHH
T1 sequence (P23743 whole entry, looked up, the tested form may be a part): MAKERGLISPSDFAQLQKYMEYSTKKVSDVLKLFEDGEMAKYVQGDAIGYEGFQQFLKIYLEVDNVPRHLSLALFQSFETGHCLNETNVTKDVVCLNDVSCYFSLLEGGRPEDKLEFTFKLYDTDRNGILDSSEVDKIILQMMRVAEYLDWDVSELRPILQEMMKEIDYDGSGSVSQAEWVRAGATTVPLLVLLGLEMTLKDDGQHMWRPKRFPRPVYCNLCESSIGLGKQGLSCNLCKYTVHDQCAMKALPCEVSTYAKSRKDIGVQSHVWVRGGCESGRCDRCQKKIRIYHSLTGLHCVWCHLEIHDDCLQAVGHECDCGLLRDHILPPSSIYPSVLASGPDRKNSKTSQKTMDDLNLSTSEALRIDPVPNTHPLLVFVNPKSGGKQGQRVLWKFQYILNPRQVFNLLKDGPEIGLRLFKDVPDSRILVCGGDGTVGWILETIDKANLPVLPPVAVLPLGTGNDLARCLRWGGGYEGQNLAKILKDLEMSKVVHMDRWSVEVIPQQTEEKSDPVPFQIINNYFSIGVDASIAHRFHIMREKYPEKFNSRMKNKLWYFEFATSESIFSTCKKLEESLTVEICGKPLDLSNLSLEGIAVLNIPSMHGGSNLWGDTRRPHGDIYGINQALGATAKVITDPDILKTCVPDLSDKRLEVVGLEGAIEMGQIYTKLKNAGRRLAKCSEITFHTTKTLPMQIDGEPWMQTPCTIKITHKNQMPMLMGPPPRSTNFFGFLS

Structure (SMILES)	pEC50 (whole blood (pERK))	pIC50 (human DGKα [1])	pIC50 (human DGKζ)	pEC50 ([2]; Homo sapiens, 24 h)	pIC50 (human DGKα [3])	pEC50 [2]
CC[C@H]1CN(C(C)c2ccc(C(F)(F)F)cc2)[C@H](CC)CN1c1nc(=O)n(C)c2ccc(OCCN(C)C)nc12 (stereo partly drawn) [Example 431, 4-((2S,5R)-2,5-diethyl-4-(1-(4-(trifluoromethyl)phenyl)ethyl)piperazin-1-yl)-6-(2-(dimethylamino)ethoxy)-1-methylpyrido[3,2-d]pyrimidin-2(1H)-one]	4.70	3.60	3.60	4.70		
CC(c1ccc(C(F)(F)F)cc1)N1C[C@H](C)N(c2nc(=O)n(C)c3ccc(Cl)nc23)C[C@H]1CN=[N+]=[N-] (stereo partly drawn) [Example 402, 4-((2S,5S)-5-(Azidomethyl)-2-methyl-4-(1-(4-(trifluoromethyl)phenyl)ethyl)piperazin-1-yl)-6-chloro-1-methylpyrido[3,2-d]pyrimidin-2(1H)-one]	5.44		5.32	5.86	4.31	
CCC(c1ccc(C(F)(F)F)cc1)N1C[C@H](CC)N(c2nc(=O)n(C)c3ccc(OC)nc23)C[C@H]1CC (stereo partly drawn) [Example 435, 4-((2S,5R)-2,5-diethyl-4-(1-(4-(trifluoromethyl)phenyl)propyl)piperazin-1-yl)-6-methoxy-1-methylpyrido[3,2-d]pyrimidin-2(1H)-one]	5.14	5.72	5.26			5.38
COC(=O)NC[C@@H]1CN(c2nc(=O)n(C)c3ccc(C#N)nc23)[C@@H](C)CN1C(C)c1ccc(C(F)(F)F)cc1 (stereo partly shown) [Example 405]	5.59		6.96	5.92	4.87	
CC(c1ccc(CN2CCOC(C)(C)C2)cc1)N1C[C@H](C)N(c2nc(=O)n(C)c3ccc(C#N)nc23)C[C@H]1C (single isomer, unassigned) [Example 385]	6.62	7.92	7.37			6.89
CC(c1ccc(CN2CCC(F)(F)CC2)cc1)N1C[C@H](C)N(c2nc(=O)n(C)c3ccc(C#N)nc23)C[C@H]1C (stereo partly drawn) [Example 391, 4-((2S,5R)-4-(1-(4-((4,4-difluoropiperidin-1-yl)methyl)phenyl)ethyl)-2,5-dimethylpiperazin-1-yl)-1-methyl-2-oxo-1,2-dihydropyrido[3,2-d]pyrimidine-6-carbonitrile]	5.95	5.69	5.87			6.14
CCC(c1nc(C2CC2)no1)N1C[C@H](CC)N(c2nc(=O)n(C)c3ccc(C#N)nc23)C[C@H]1CC (stereo partly drawn) [Example 363, 4-((2S,5R)-4-(1-(3-cyclopropyl-1,2,4-oxadiazol-5-yl)propyl)-2,5-diethylpiperazin-1-yl)-1-methyl-2-oxo-1,2-dihydropyrido[3,2-d]pyrimidine-6-carbonitrile]	7.62	7.77	7.49	6.80		

Further molecules by rising pEC50 (whole blood (pERK)), results first:

pEC50 (whole blood (pERK))	pIC50 (human DGKα [1])	pIC50 (human DGKζ)	pEC50 ([2]; Homo sapiens, 24 h)	pIC50 (human DGKα [3])	pEC50 [2]	Structure (SMILES)
5.44	7.21	5.85			4.93	CCC(c1ccc(OC)cc1)N1C[C@H](C)N(c2nc(=O)n(C)c3ccc(C#N)nc23)C[C@H]1CC (stereo partly drawn) [Example 305, 4-((2S,5R)-5-ethyl-4-(1-(4-methoxyphenyl)propyl)-2-methylpiperazin-1-yl)-1-methyl-2-oxo-1,2-dihydropyrido[3,2-d]pyrimidine-6-carbonitrile]
6.96	7.92	7.85			7.80	CCC(c1ccc(OC)cc1)N1C[C@H](C)N(c2nc(=O)n(C)c3ccc(C#N)nc23)C[C@H]1CC (stereo partly drawn) [Example 304, 4-((2S,5R)-5-ethyl-4-(1-(4-methoxyphenyl)propyl)-2-methylpiperazin-1-yl)-1-methyl-2-oxo-1,2-dihydropyrido[3,2-d]pyrimidine-6-carbonitrile]
7.00	7.05	7.14			6.92	CCC(c1ccc(OC(C)C)cc1)N1C[C@H](C)N(c2nc(=O)n(C)c3ccc(C#N)nc23)C[C@H]1CC (stereo partly drawn) [Example 333, 4-((2 S,5R)-5-ethyl-4-(1-(4-isopropoxyphenyl)propyl)-2-methylpiperazin-1-yl)-1-methyl-2-oxo-1,2-dihydropyrido[3,2-d]pyrimidine-6-carbonitrile]

From patent US11584747B2, “Substituted pyridopyrimidinonyl compounds useful as T cell activators” (BRISTOL-MYERS SQUIBB COMPANY, priority 2019, dated 2023)
